Measured values from US9657002B2, “Oxindole derivatives carrying an oxetane substituent and use thereof for treating vassopressin-related diseases” (AbbVie Deutschland GmbH & Co. KG, priority 2013, dated 2017).

Key:
[1] = biological target: human vasopressin V1a receptor (Homo sapiens, UniProt P37288); experiment: Vasopressin V1a receptor binding assay; conditions: selectivity quotient, human V1a vs human V1b
[2] = biological target: T1, human vasopressin V1b receptor (Homo sapiens, UniProt P47901); experiment: biochemical
T1 sequence (P47901 1-424): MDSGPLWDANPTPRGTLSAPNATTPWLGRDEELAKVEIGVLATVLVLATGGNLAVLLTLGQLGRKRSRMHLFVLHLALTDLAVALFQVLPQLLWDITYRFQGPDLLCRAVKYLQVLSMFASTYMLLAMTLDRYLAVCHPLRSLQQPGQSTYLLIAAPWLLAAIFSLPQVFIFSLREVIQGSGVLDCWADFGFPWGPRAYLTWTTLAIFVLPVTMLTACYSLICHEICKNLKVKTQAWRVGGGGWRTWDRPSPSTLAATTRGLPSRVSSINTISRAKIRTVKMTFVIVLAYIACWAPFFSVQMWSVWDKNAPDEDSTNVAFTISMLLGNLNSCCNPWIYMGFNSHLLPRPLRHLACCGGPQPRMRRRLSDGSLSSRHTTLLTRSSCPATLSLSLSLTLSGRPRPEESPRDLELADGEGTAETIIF

Chain of human vasopressin V1a receptor (P37288 whole entry): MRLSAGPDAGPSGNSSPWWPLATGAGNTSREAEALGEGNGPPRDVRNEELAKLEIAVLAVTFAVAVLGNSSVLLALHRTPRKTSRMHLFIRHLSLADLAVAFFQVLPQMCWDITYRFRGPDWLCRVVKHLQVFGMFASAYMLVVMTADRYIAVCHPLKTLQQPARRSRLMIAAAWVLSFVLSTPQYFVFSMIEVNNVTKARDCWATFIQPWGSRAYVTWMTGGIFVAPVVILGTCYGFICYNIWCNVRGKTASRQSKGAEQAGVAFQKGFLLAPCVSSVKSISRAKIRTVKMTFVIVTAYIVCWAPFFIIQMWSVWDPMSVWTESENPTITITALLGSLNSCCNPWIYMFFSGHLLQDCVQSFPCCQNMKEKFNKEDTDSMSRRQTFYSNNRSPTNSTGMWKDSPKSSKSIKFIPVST

SMILES	Ki(h-V1a)/Ki(h-V1b) [1]	Ki [2] [nM]
CCOc1ncccc1[C@]1(NC(=O)N2CCN(C3CCN(C4COC4)CC3)CC2)C(=O)N(S(=O)(=O)c2ccc(OC)cc2OC)c2ccc(C#N)cc21 [Example 1, (S)—N-(5-cyano-1-((2,4-dimethoxyphenyl)sulfonyl)-3-(2-ethoxypyridin-3-yl)-2-oxoindolin-3-yl)-4-(1-(oxetan-3-yl)piperidin-4-yl)piperazine-1-carboxamide]	+++ (>75)	–
CCOc1ncccc1[C@]1(NC(=O)N2CCN(C3CCN(C4COC4)CC3)CC2)C(=O)N(S(=O)(=O)c2ccc(OC)cc2F)c2ccc(C#N)cc21 [Example 6, (S)—N-(5-cyano-3-(2-ethoxypyridin-3-yl)-1-((2-fluoro-4-methoxyphenyl)sulfonyl)-2-oxoindolin-3-yl)-4-(1-(oxetan-3-yl)piperidin-4-yl)piperazine-1-carboxamide]	+++ (>75)	–
CCOc1ncccc1[C@]1(NC(=O)N2CCN(C3CCN(C4COC4)CC3)CC2)C(=O)N(S(=O)(=O)c2ccc(OC)cc2OC)c2cc(F)c(C#N)cc21 [Example 7A, (S)—N-(5-cyano-1-((2,4-dimethoxyphenyl)sulfonyl)-3-(2-ethoxypyridin-3-yl)-6-fluoro-2-oxoindolin-3-yl)-4-(1-(oxetan-3-yl)piperidin-4-yl)piperazine-1-carboxamide]	+++ (>75)	< 1
CCOc1ncccc1[C@]1(NC(=O)N2CCN(C3CCN(C4COC4)CC3)CC2)C(=O)N(S(=O)(=O)c2cc(F)c(OC)cc2OC)c2ccc(C#N)cc21 [Example 8, (S)—N-(5-cyano-3-(2-ethoxypyridin-3-yl)-1-((5-fluoro-2,4-dimethoxyphenyl)sulfonyl)-2-oxoindolin-3-yl)-4-(1-(oxetan-3-yl)piperidin-4-yl)piperazine-1-carboxamide]	+++ (>75)	–
CCOc1ncccc1[C@]1(NC(=O)N2CCN(C3CCN(C4COC4)CC3)CC2)C(=O)N(S(=O)(=O)c2ccc(OC)cc2OC)c2cc(F)c(F)cc21 [Example 9, (S)—N-(1-((2,4-dimethoxyphenyl)sulfonyl)-3-(2-ethoxypyridin-3-yl)-5,6-difluoro-2-oxoindolin-3-yl)-4-(1-(oxetan-3-yl)piperidin-4-yl)piperazine-1-carboxamide]	+++ (>75)	–
CCOc1ncccc1[C@]1(NC(=O)N2CCN(C3CCN(C4COC4)CC3)CC2)C(=O)N(S(=O)(=O)c2ccc(OC)cc2OC)c2ccc(Cl)cc21 [Example 10, (S)—N-(5-chloro-1-((2,4-dimethoxyphenyl)sulfonyl)-3-(2-ethoxypyridin-3-yl)-2-oxoindolin-3-yl)-4-(1-(oxetan-3-yl)piperidin-4-yl)piperazine-1-carboxamide]	+++ (>75)	–
CCOc1ncccc1[C@]1(NC(=O)N2CCC(C3CCN(C4COC4)CC3)CC2)C(=O)N(S(=O)(=O)c2ccc(OC)cc2OC)c2ccc(C#N)cc21 [Example 11, (S)—N-(5-cyano-1-((2,4-dimethoxyphenyl)sulfonyl)-3-(2-ethoxypyridin-3-yl)-2-oxoindolin-3-yl)-1′-(oxetan-3-yl)-[4,4′-bipiperidine]-1-carboxamide]	+++ (>75)	< 1
CCOc1ncccc1[C@]1(NC(=O)N2CCC(N3CCN(C4COC4)CC3)CC2)C(=O)N(S(=O)(=O)c2ccc(C#N)cc2)c2ccc(C#N)cc21 [Example 12, (S)—N-(5-cyano-1-((4-cyanophenyl)sulfonyl)-3-(2-ethoxypyridin-3-yl)-2-oxoindolin-3-yl)-4-(4-(oxetan-3-yl)piperazin-1-yl)piperidine-1-carboxamide]	++ (25-75)	–
CCOc1ncccc1[C@]1(NC(=O)N2CCC(N3CCN(C4COC4)CC3)CC2)C(=O)N(S(=O)(=O)c2ccc(OC)cc2)c2ccc(C#N)cc21 [Example 13, (S)—N-(5-cyano-3-(2-ethoxypyridin-3-yl)-1-((4-methoxyphenyl)sulfonyl)-2-oxoindolin-3-yl)-4-(4-(oxetan-3-yl)piperazin-1-yl)piperidine-1-carboxamide]	+++ (>75)	–
COc1ccc(S(=O)(=O)N2C(=O)C(NC(=O)N3CCN(C4CCN(C5COC5)CC4)CC3)(c3cccnc3OC)c3cc(C#N)ccc32)c(OC)c1 (stereo not shown) [Example 15, N-(5-cyano-1-((2,4-dimethoxyphenyl)sulfonyl)-3-(2-methoxypyridin-3-yl)-2-oxoindolin-3-yl)-4-(1-(oxetan-3-yl)piperidin-4-yl)piperazine-1-carboxamide]	+++ (>75)	–
CCOc1ncccc1[C@]1(NC(=O)N2CCC(N3C[C@@H]4C[C@H]3CN4C3COC3)CC2)C(=O)N(S(=O)(=O)c2ccc(OC)cc2OC)c2ccc(C#N)cc21 [Example 17, N—((S)-5-cyano-1-((2,4-dimethoxyphenyl)sulfonyl)-3-(2-ethoxypyridin-3-yl)-2-oxoindolin-3-yl)-4-((1S,4S)-5-(oxetan-3-yl)-2,5-diazabicyclo[2.2.1]heptan-2-yl)piperidine-1-carboxamide]	++ (25-75)	–
CCOc1ncccc1[C@]1(NC(=O)N2CCN(C3CCN(C4COC4)CC3)CC2)C(=O)N(S(=O)(=O)c2ccc(OC)c(C)c2C)c2ccc(C#N)cc21 [Example 18, (S)—N-(5-cyano-3-(2-ethoxypyridin-3-yl)-1-((4-methoxy-2,3-dimethylphenyl)sulfonyl)-2-oxoindolin-3-yl)-4-(1-(oxetan-3-yl)piperidin-4-yl)piperazine-1-carboxamide]	+ (10-<25)	–
CCOc1ncccc1[C@]1(NC(=O)N2CCN(C3CCN(CC4COC4)CC3)CC2)C(=O)N(S(=O)(=O)c2ccc(OC)cc2OC)c2ccc(C#N)cc21 [Example 19, (S)—N-(5-cyano-1-((2,4-dimethoxyphenyl)sulfonyl)-3-(2-ethoxypyridin-3-yl)-2-oxoindolin-3-yl)-4-(1-(oxetan-3-ylmethyl)piperidin-4-yl)piperazine-1-carboxamide]	+++ (>75)	10 to 100
CCOc1ncccc1[C@]1(NC(=O)N2CCN(C3CCN(C4COC4)CC3)CC2)C(=O)N(S(=O)(=O)c2ccc(OC)cc2)c2ccc(C#N)cc21 [Example 24, N-[(3S)-5-cyano-3-(2-ethoxy-3-pyridyl)-1-(4-methoxyphenyl)sulfonyl-2-oxo-indolin-3-yl]-4-[1-(oxetan-3-yl)-4-piperidyl]piperazine-1-carboxamide]	+++ (>75)	10 to 100
CCOc1ncccc1[C@]1(NC(=O)N2CCN(C3CCN(C4COC4)CC3)CC2)C(=O)N(S(=O)(=O)c2ccc(OC)cn2)c2ccc(C#N)cc21 [Example 25, N-[(3S)-5-cyano-3-(2-ethoxy-3-pyridyl)-1-[(5-methoxy-2-pyridyl)sulfonyl]-2-oxo-indolin-3-yl]-4-[1-(oxetan-3-yl)-4-piperidyl]piperazine-1-carboxamide]	+++ (>75)	1 to 10
CCOc1ncccc1[C@]1(NC(=O)N2CCN(C3CCN(C4COC4)CC3)CC2)C(=O)N(S(=O)(=O)c2ccc(F)cc2OC)c2ccc(C#N)cc21 [Example 26, N-[(3S)-5-cyano-3-(2-ethoxy-3-pyridyl)-1-(4-fluoro-2-methoxy-phenyl)sulfonyl-2-oxo-indolin-3-yl]-4-[1-(oxetan-3-yl)-4-piperidyl]piperazine-1-carboxamide]	+++ (>75)	1 to 10
COc1ccc(S(=O)(=O)N2C(=O)[C@@](NC(=O)N3CCC(C4CCN(C5COC5)CC4)CC3)(c3cccnc3OC)c3cc(C#N)ccc32)c(OC)c1 [Example 27, N-[(3S)-5-cyano-1-(2,4-dimethoxyphenyl)sulfonyl-3-(2-methoxy-3-pyridyl)-2-oxo-indolin-3-yl]-4-[1-(oxetan-3-yl)-4-piperidyl]piperidine-1-carboxamide]	+++ (>75)	< 1
CCOc1ncccc1[C@]1(NC(=O)N2CCN(C3CCN(C4COC4)CC3)CC2)C(=O)N(S(=O)(=O)c2ccc(F)cc2)c2ccc(C#N)cc21 [Example 28, N-[(3S)-5-cyano-3-(2-ethoxy-3-pyridyl)-1-(4-fluorophenyl)sulfonyl-2-oxo-indolin-3-yl]-4-[1-(oxetan-3-yl)-4-piperidyl]piperazine-1-carboxamide]	+++ (>75)	10 to 100
COc1ccc(S(=O)(=O)N2C(=O)[C@@](NC(=O)N3CCN(C4CCN(C5COC5)CC4)CC3)(c3cccnc3OC)c3cc(C#N)ccc32)nc1 [Example 29, N-[(3S)-5-cyano-3-(2-methoxy-3-pyridyl)-1-[(5-methoxy-2-pyridyl)sulfonyl]-2-oxo-indolin-3-yl]-4-[1-(oxetan-3-yl)-4-piperidyl]piperazine-1-carboxamide]	+ (10-<25)	1 to 10
COc1cc(F)ccc1S(=O)(=O)N1C(=O)[C@@](NC(=O)N2CCN(C3CCN(C4COC4)CC3)CC2)(c2cccnc2OC)c2cc(C#N)ccc21 [Example 30, N-[(3S)-5-cyano-1-(4-fluoro-2-methoxy-phenyl)sulfonyl-3-(2-methoxy-3-pyridyl)-2-oxo-indolin-3-yl]-4-[1-(oxetan-3-yl)-4-piperidyl]piperazine-1-carboxamide]	+++ (>75)	1 to 10
COc1ccc(S(=O)(=O)N2C(=O)[C@@](NC(=O)N3CCC(C4CCN(C5COC5)CC4)CC3)(c3cccnc3OC)c3cc(C#N)ccc32)nc1 [Example 39, N-[(3S)-5-cyano-3-(2-methoxy-3-pyridyl)-1-[(5-methoxy-2-pyridyl)sulfonyl]-2-oxo-indolin-3-yl]-4-[1-(oxetan-3-yl)-4-piperidyl]piperidine-1-carboxamide]	–	< 1
